Earlier results on 35 molecules are cited in article PMC11187573, “Identification of SARS-CoV-2 Mpro inhibitors through deep reinforcement learning for de novo drug design and computational chemistry approaches” (RSC Medicinal Chemistry, 2024).

Where two headings read alike, the source gives them in different places.

The subject of one series is Mpro. To be noted: ML dataset, cited from earlier work.
The subject of series [1] is SARS, SARS-CoV-2 and MERS Mpro. Conditions: cited from earlier work.
Setting [2] is: Origin COVID_Moonshot, ref COVID Moonshot.

As usually defined, the IC50 is the concentration at which inhibition is half-maximal. Turning to `CN(C)c1ccc(N(Cc2cccc(Cl)c2)C(=O)Cn2nnc3ccccc32)cc1` [ALP-POS-6d04362c-2, CN(C)c(cc1)ccc1N(Cc1cccc(Cl)c1)C(Cn1nnc2c1cccc2)=O, reference compound], the results for the concentration for half-maximal inhibition (IC50) (with Mpro (setting [2]); in series [1] (setting [2])) were 0.444 µM and 0.497 µM, respectively.

Regarding `O=C(Nc1cncc2ccccc12)C1CCCc2ccc(Cl)cc21` (stereo not shown) [ALP-POS-477dc5b7-1, O=C(C(CCC1)c2c1ccc(Cl)c2)Nc1cncc2ccccc12, reference compound], the 50% inhibitory concentration (IC50) in the series with Mpro (setting [2]) was 0.307 µM; in series [1] (setting [2]), 0.324 µM.

As to `O=C1N(Cc2cccc(Cl)c2)CCN1c1nccc2[nH]ncc12` [ALP-POS-91609ae9-3, O=C(N(Cc1cccc(Cl)c1)CC1)N1c1nccc2c1cn[nH]2, reference compound], the IC50 in the series with Mpro (setting [2]) is 3.73 µM; in series [1] (setting [2]), 4.56 µM.

As for `CC(C)Nc1cccnc1N1CCN(C(=O)c2cc3cc(NS(C)(=O)=O)ccc3[nH]2)CC1` [CHEMBL929, CC(C)Nc1cccnc1N(CC1)CCN1C(c1cc(cc(cc2)NS(C)(=O)=O)c2[nH]1)=O, reference compound], the IC50 with Mpro (Origin ChEMBL, ref ChEMBL) is 3.99 µM; in series [1] (Origin ChEMBL, ref ChEMBL), 3.99 µM.

As for `Cc1c(-c2cnccn2)ssc1=S` [CHEMBL178459, CC1=C(c2nccnc2)SSC1=S, reference compound], the IC50 in the series on Mpro (Origin ChEMBL, ref ChEMBL) was 0.415 µM; in series [1] (Origin ChEMBL, ref ChEMBL), 0.415 µM.

As for `COc1nc2ccc(Br)cc2cc1[C@@H](c1ccccc1)[C@@](O)(CCN(C)C)c1cccc2ccccc12` [CHEMBL376488, CN(C)CC[C@]([C@H](c1ccccc1)c(cc(cc(cc1)Br)c1n1)c1OC)(c1cccc2ccccc12)O, reference compound], the 50% inhibitory concentration (IC50) was 4.36 µM in the series with Mpro (Origin ChEMBL, ref ChEMBL) and 4.36 µM in series [1] (Origin ChEMBL, ref ChEMBL).

For `CC(CN1CC(=O)NC(=O)C1)N1CC(=O)NC(=O)C1` (stereo not shown) [CHEMBL444186, CC(CN(CC(N1)=O)CC1=O)N(CC(N1)=O)CC1=O, reference compound], the IC50 in the series on Mpro (Origin ChEMBL, ref ChEMBL) is 3.19 µM; in series [1] (Origin ChEMBL, ref ChEMBL) it was 3.19 µM.

With `Nc1ccc(O)c2ncccc12` [CHEMBL449298, Nc(c1cccnc11)ccc1O, reference compound], the IC50 in the series on Mpro (Origin ChEMBL, ref ChEMBL) was 2.05 µM; in series [1] (Origin ChEMBL, ref ChEMBL) it was 2.05 µM.

Consider `CN1CC[C@@]2(C)c3cc(O)ccc3N(C)[C@@H]12` [CHEMBL1256915, C[C@]12c(cc(cc3)O)c3N(C)[C@H]1N(C)CC2, reference compound], for which the IC50 in the series with Mpro (Origin ChEMBL, ref ChEMBL) is 1.99 µM; in series [1] (Origin ChEMBL, ref ChEMBL) it was 1.99 µM.

Turning to `COc1cc(C(=S)N2CCOCC2)ccc1O` [CHEMBL1380480, COc(cc(cc1)C(N2CCOCC2)=S)c1O, reference compound], the IC50 in the series with Mpro (Origin ChEMBL, ref ChEMBL) is 1.32 µM; in series [1] (Origin ChEMBL, ref ChEMBL) it was 1.32 µM.

With `c1ccc2sc(SNC3CCCCC3)nc2c1` [CHEMBL1591074, C(CC1)CCC1NSc1nc(cccc2)c2s1, reference compound], the concentration for half-maximal inhibition (IC50) with Mpro (Origin ChEMBL, ref ChEMBL) is 0.77 µM; in series [1] (Origin ChEMBL, ref ChEMBL), 0.77 µM.

In the case of `O=[N+]([O-])c1cnc(Sc2nnc(-c3ccc(Cl)cc3)o2)s1` [LON-WEI-4d77710c-67, [O-][N+](c1cnc(Sc2nnc(-c(cc3)ccc3Cl)o2)s1)=O], the IC50 in series [1] (setting [2]) is 0.881 µM.

In the case of `CCOC(=O)c1ccc(NC(=O)CC2SC(=O)N(c3ccccc3)C2=O)cc1` (stereo not shown) [LON-WEI-4d77710c-74, CCOC(c(cc1)ccc1NC(CC(C(N1c2ccccc2)=O)SC1=O)=O)=O], the IC50 in series [1] (setting [2]) is 2.4 µM.

Regarding `Cc1ccccc1NC(=O)CC1SC(=O)N(c2ccccc2)C1=O` (stereo not shown) [LON-WEI-4d77710c-75, Cc(cccc1)c1NC(CC(C(N1c2ccccc2)=O)SC1=O)=O], the 50% inhibitory concentration (IC50) in series [1] (setting [2]) was 0.443 µM.

Regarding `O=C(CCl)N1CCN(S(=O)(=O)c2c(F)cccc2F)CC1` [LON-WEI-8f408cad-2, O=C(CCl)N(CC1)CCN1S(c(c(F)ccc1)c1F)(=O)=O], the IC50 in series [1] (setting [2]) is 3.28 µM.

As to `O=C(CCl)N1CCN(S(=O)(=O)c2cccs2)CC1` [LON-WEI-8f408cad-3, O=C(CCl)N(CC1)CCN1S(c1cccs1)(=O)=O], in series [1] (setting [2]), the IC50 was 2.16 µM.

With `O=C(CCl)N1CCN(Cc2ccsc2)CC1` [LON-WEI-8f408cad-7, O=C(CCl)N1CCN(Cc2cscc2)CC1], the IC50 in series [1] (setting [2]) was 3.5 µM.

As to `C=CC(=O)N(c1ccc(C(C)(C)C)cc1)C(C(=O)NCCc1cccc(F)c1)c1cccnc1` (stereo not shown) [LON-WEI-adc59df6-47, CC(C)(C)c(cc1)ccc1N(C(C(NCCc1cccc(F)c1)=O)c1cnccc1)C(C=C)=O], the IC50 in series [1] (setting [2]) is 2.96 µM.

With `CS(=O)(=O)c1ncc(Cl)c(C(=O)Nc2ccccc2Cc2ccccc2)n1` [LON-WEI-ff7b210a-4, CS(c(nc1)nc(C(Nc2c(Cc3ccccc3)cccc2)=O)c1Cl)(=O)=O], in series [1] (setting [2]), the 50% inhibitory concentration (IC50) is 0.503 µM.

For the molecule `CCOC(=O)c1nc(S(C)(=O)=O)ncc1Cl` [LON-WEI-ff7b210a-5, CCOC(c(nc(nc1)S(C)(=O)=O)c1Cl)=O], the IC50 in series [1] (setting [2]) is 1.6 µM.

Take `O=C(CCl)N1CCN(S(=O)(=O)C2=CC[SH]=C2)CC1` [MAK-UNK-d4768348-1, O=C(CCl)N(CC1)CCN1S(C1=CCS=C1)(=O)=O]: the IC50 in series [1] (setting [2]) is 1.63 µM.

Consider `COc1ccc(C2CC(c3cccs3)=NN2C(=O)CCl)cc1OC` (stereo not shown) [MAT-POS-916a2c5a-1, COc(ccc(C(C1)N(C(CCl)=O)N=C1c1cccs1)c1)c1OC], for which the half-maximal inhibitory concentration (IC50) in series [1] (setting [2]) was 1.87 µM.

For the molecule `O=C(CCl)N1CCN(Cc2cccc(Cl)c2)CC1` [MED-COV-4280ac29-15, O=C(CCl)N1CCN(Cc2cccc(Cl)c2)CC1], the half-inhibitory concentration (IC50) in series [1] (setting [2]) is 2.84 µM.

For `COc1ccc(C2CC(c3ccccc3)=NN2C(=O)CCl)cc1OC` (stereo not shown) [MED-COV-4280ac29-30, COc(ccc(C(C1)N(C(CCl)=O)N=C1c1ccccc1)c1)c1OC], the IC50 in series [1] (setting [2]) is 0.543 µM.

As to `COCc1cc(Cl)cc(CN2CCN(C(=O)CCl)CC2)c1` [MED-COV-4280ac29-33, COCc1cc(CN(CC2)CCN2C(CCl)=O)cc(Cl)c1], the IC50 in series [1] (setting [2]) was 4.77 µM.

`COCCc1ccc(Cl)cc1CN1CCN(C(=O)CCl)CC1` [MED-COV-4280ac29-37, COCCc(cc1)c(CN(CC2)CCN2C(CCl)=O)cc1Cl]: the concentration for half-maximal inhibition (IC50) in series [1] (setting [2]) was 2.2 µM.

As to `NS(=O)(=O)CCc1ccccc1CN1CCN(C(=O)CCl)CC1` [MIH-UNI-e573136b-5, NS(CCc1c(CN(CC2)CCN2C(CCl)=O)cccc1)(=O)=O], in series [1] (setting [2]), the IC50 was 2.72 µM.

`COc1ccc2c(c1)CN(C(=O)CCl)C(c1ccccc1)C2` (stereo not shown) [NAU-LAT-64f4b287-4, COc1cc(CN(C(C2)c3ccccc3)C(CCl)=O)c2cc1]: the 50% inhibitory concentration (IC50) in series [1] (setting [2]) is 3.74 µM.

As for `Cc1cc(Cl)cc(CC2CCN(C(=O)CCl)CC2)c1` [NIR-THE-0d6461ce-8, Cc1cc(Cl)cc(CC(CC2)CCN2C(CCl)=O)c1], the IC50 in series [1] (setting [2]) was 3.57 µM.

With `N#Cc1cccc(C2CN(C(=O)CCl)Cc3ccccc32)c1` (stereo not shown) [NIR-THE-c331be7a-2, N#Cc1cccc(C(CN(C2)C(CCl)=O)c3c2cccc3)c1], the IC50 in series [1] (setting [2]) is 1.17 µM.

Turning to `Cc1cccc(C2CN(C(=O)CCl)Cc3ccccc32)c1` (stereo not shown) [NIR-THE-c331be7a-6, Cc1cccc(C(CN(C2)C(CCl)=O)c3c2cccc3)c1], the IC50 in series [1] (setting [2]) is 2 µM.

With `O=C(CCl)N1CCN(Cc2cc(Cl)cc(Cl)c2)CC1` [PAU-UNI-8cdd41c7-1, O=C(CCl)N1CCN(Cc2cc(Cl)cc(Cl)c2)CC1], the IC50 in series [1] (setting [2]) is 1.89 µM.

In the case of `O=C(CCl)N1CCN(C(c2ccccc2)c2ccccc2)CC1` [SIM-SYN-f15aaa3a-1, O=C(CCl)N(CC1)CCN1C(c1ccccc1)c1ccccc1], in series [1] (setting [2]), the concentration for half-maximal inhibition (IC50) was 1.98 µM.

In the case of `Cc1cc(C(=O)CCl)c(C)n1CC1COc2ccccc2O1` (stereo not shown) [TAT-ENA-80bfd3e5-32, Cc1cc(C(CCl)=O)c(C)n1CC1Oc(cccc2)c2OC1], the 50% inhibitory concentration (IC50) in series [1] (setting [2]) was 2.82 µM.

With `Cc1ccncc1NC(=O)Cc1cc(Cl)cc(OC2CC(=O)N2)c1` (stereo not shown) [TRY-UNI-2eddb1ff-7, Cc(ccnc1)c1NC(Cc1cc(Cl)cc(OC(C2)NC2=O)c1)=O], in series [1] (setting [2]), the half-inhibitory concentration (IC50) is 3.61 µM.
